In patent US12048693B2, “Substituted halo-quinoline derivatives, method of preparation and applications thereof” (Institut National de la Sante et de la Recherche Medicale …, priority 2018, dated 2024):

Key:
melanoma cell line A375 = assay: In vitro dose response study on A375 proliferation; format: cell-based; conditions: Homo sapiens, A-375, 96 h, graded concentration
Experimental: The melanoma cell line A375 was treated during 96 h with graded concentration of compounds 42 and 43. At the end of the culture period, the cell concentration was determined.

PC3 [1] = assay: Cancer cell proliferation assay; format: cell-based, human; conditions: 10 μM, normalized to DMSO-treated control
Experimental: (§1) Cancer Cell Proliferation Assay (A375, A549, PC3, HT-29, MiaPaca-2 and MCF-7)
(§2) The tested cancer cells are the following: human melanoma cells (A375), lung carcinoma cells (A549), prostate cancer cells (PC3), colon adenocarcinoma (HT29), pancreas carcinoma (MiaPaca 2) and breast carcinoma (MCF-7).
(§3) Cells were counted using a Malassez chamber. The average and standard deviation were calculated from triplicate experiments. Antiproliferative effects were evaluated by trypan blue exclusion assay. Briefly, cells were seeded into 12-well plate and grown in media supplemented with indicated compound at 1 or 10 μM for 48 h or 96 h. Cells were washed with PBS and detached by trypsinization, collected and colored by trypan blue.
Dead and living cells were counted and proliferation was calculated as follow: Proliferation (%)=[(treated cell number/untreated cells number)*100].

PC3 [2] = assay: Cancer cell viability, trypan blue exclusion assay; format: cell-based; conditions: Homo sapiens, PC-3, normalized to DMSO-treated control
Experimental: as §1, §2, §3
(§4) As a comparison, cell viability was also determined and calculated as follow: Viability (%)=100−[(dead cell number/total cells)*100].

MCF-7 = assay: Cancer cell viability, trypan blue exclusion assay; format: cell-based; conditions: Homo sapiens, MCF7, normalized to DMSO-treated control
Experimental: as §1, §2, §3, §4

HT29 = assay: Cancer cell viability, trypan blue exclusion assay; format: cell-based; conditions: Homo sapiens, HT-29, normalized to DMSO-treated control
Experimental: as §1, §2, §3, §4

MiaPaca-2 = assay: Cancer cell viability, trypan blue exclusion assay; format: cell-based; conditions: Homo sapiens, MIA PaCa-2, normalized to DMSO-treated control
Experimental: as §1, §2, §3, §4

A549 = assay: Cancer cell viability, trypan blue exclusion assay; format: cell-based; conditions: Homo sapiens, normalized to DMSO-treated control
Experimental: as §1, §2, §3, §4

[3] = Melanocyte viability assay (MHN); format: cell-based; conditions: human, MHN melanocytes, 10 μM for 96 h, normalized to DMSO-treated control, read-out: Heathly Cell Viability MHN
Experimental: Melanocyte Viability Assay (MHN)
Cell viability effects were evaluated by trypan blue exclusion assay. Briefly, cells were seeded into 12-well plate and grown in media supplemented with indicated compound at 10 μM for 96 h. Cells were washed with PBS and detached by trypsinization, collected and colored by trypan blue. Dead and living cells were counted and cell viability was calculated as follow: Viability (%)=100−[(dead cell number/total cells)*100].

A375 = assay: Cancer cell viability, trypan blue exclusion assay; format: cell-based; conditions: Homo sapiens, A-375, normalized to DMSO-treated control
Experimental: as §2
Cells were counted using a Malassez chamber. The average and standard deviation were calculated from triplicate experiments. Antiproliferative effects were evaluated by trypan blue exclusion assay. […] Cells were washed with PBS and detached by trypsinization, collected and colored by trypan blue.
as §4

Compound: COc1ccc(Nc2ccnc3cc(Cl)ccc23)cc1O [Compound 43, 7-chloro-N-(3-(hydroxy)-4-(methoxy)phenyl)quinolin-4-amine]
- IC50 (melanoma cell line A375): 1830 nM
- Cancer Cell Proliferation (PC3 [1]): 55.0%
- viability at 10 µM (PC3 [2]): 94.6%
- viability at 10 µM (MCF-7): 99.6%
- viability at 10 µM (HT29): 85.8%
- viability at 10 µM (MiaPaca-2): 97.6%
- viability at 10 µM (A549): 99.8%

Compound: COCCOc1ccc(Nc2ccnc3cc(Cl)ccc23)cc1 [Compound 42, 7-chloro-N-(4-(2-methoxyethoxy)phenyl)quinolin-4-amine]
- viability at 96 h, 10 μM [3]: 99%
- IC50 (melanoma cell line A375): 420 nM
- viability at 10 µM (A375): 99.3%
- viability at 10 µM (PC3 [2]): 98.9%
- viability at 10 µM (MCF-7): 97.2%
- viability at 10 µM (HT29): 97.3%
- viability at 10 µM (MiaPaca-2): 100%
- viability at 10 µM (A549): 99.7%
